pIC50: −log10 of the molar value.

P2X7 receptor, sequence (Q99572 whole entry): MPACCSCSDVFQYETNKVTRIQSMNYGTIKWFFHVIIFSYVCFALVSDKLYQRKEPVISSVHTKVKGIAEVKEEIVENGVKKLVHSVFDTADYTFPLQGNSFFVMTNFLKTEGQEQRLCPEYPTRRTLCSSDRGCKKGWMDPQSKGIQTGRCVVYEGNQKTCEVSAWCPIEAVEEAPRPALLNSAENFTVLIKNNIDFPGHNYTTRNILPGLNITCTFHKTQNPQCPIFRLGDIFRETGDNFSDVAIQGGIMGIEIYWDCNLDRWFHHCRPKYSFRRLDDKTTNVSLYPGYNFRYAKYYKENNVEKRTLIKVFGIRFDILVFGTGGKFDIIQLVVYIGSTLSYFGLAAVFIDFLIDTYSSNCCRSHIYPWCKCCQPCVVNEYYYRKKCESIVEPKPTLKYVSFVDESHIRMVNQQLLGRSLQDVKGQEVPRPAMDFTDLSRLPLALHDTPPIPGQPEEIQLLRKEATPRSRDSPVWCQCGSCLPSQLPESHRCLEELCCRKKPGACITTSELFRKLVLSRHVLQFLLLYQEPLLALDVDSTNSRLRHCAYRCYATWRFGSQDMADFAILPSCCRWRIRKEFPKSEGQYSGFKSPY

For the assay, the target named is P2X7 receptor (Homo sapiens (Human), UniProt Q99572). In words: P2X7 FLIPR assay (BzATP-stimulated calcium fluorescence, antagonist IC50). The class given is cell-based. A digest of the protocol:
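Cells expressing P2X7 receptor (human, rat or mouse), plated 24 hours earlier in low-serum medium, loaded with Fluo-4 NW dye (30 min 37° C, 30 min room temperature).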
In general, pIC50 refers to −log10 of the IC50, conventionally taken in molar units. As to `O=C(NCC1(c2ccc(C(F)(F)F)nc2)CCC(F)(F)CC1)c1cccc(F)c1Cl` [2-chloro-N-((4,4-difluoro-1-(6-(trifluoromethyl)pyridin-3-yl)cyclohexyl)methyl)-3-fluorobenzamide], the pIC50 is 8.85.
`COc1cccc(C(=O)NCC2(c3ccc(C(F)(F)F)nc3)CCC(F)(F)CC2)c1Cl` [2-chloro-N-((4,4-difluoro-1-(6-(trifluoromethyl)pyridin-3-yl)cyclohexyl)methyl)-3-methoxybenzamide]: the pIC50 was 8.15.
`Cc1cccc(C(=O)NCC2(c3ccc(C(F)(F)F)nc3)CCC(F)(F)CC2)c1Cl` [2-chloro-N-((4,4-difluoro-1-(6-(trifluoromethyl)pyridin-3-yl)cyclohexyl)methyl)-3-methylbenzamide]: the pIC50 was 9.27.
Take `CS(=O)(=O)c1ccc(C(=O)NCC2(c3ccc(C(F)(F)F)nc3)CCC(F)(F)CC2)c(Cl)c1` [2-chloro-N-((4,4-difluoro-1-(6-(trifluoromethyl)pyridin-3-yl)cyclohexyl)methyl)-4-(methylsulfonyl)benzamide]: the negative-log IC50 (pIC50) was 5.74.
With `O=C(NCC1(c2ccc(C(F)(F)F)nc2)CCC(F)(F)CC1)c1ccccc1Cl` [2-chloro-N-((4,4-difluoro-1-(6-(trifluoromethyl)pyridin-3-yl)cyclohexyl)methyl)benzamide], the pIC50 was 8.70.
`O=C(NCC1(c2ccc(F)nc2)CCC(F)(F)CC1)c1cccc(F)c1Cl` [2-chloro-N-((4,4-difluoro-1-(6-fluoropyridin-3-yl)cyclohexyl)methyl)-3-fluorobenzamide]: the pIC50 is 8.28.
For `CS(=O)(=O)c1ccc(Cl)c(C(=O)NCC2(c3ccc(F)nc3)CCC(F)(F)CC2)c1` [2-chloro-N-((4,4-difluoro-1-(6-fluoropyridin-3-yl)cyclohexyl)methyl)-5-(methylsulfonyl)benzamide], the pIC50 was 8.06.
As for `COc1ccc(Cl)c(C(=O)NCC2(c3ccc(F)nc3)CCC(F)(F)CC2)c1` [2-chloro-N-((4,4-difluoro-1-(6-fluoropyridin-3-yl)cyclohexyl)methyl)-5-methoxybenzamide], the pIC50 was 9.08.
For `O=C(NCC1(c2ccc(F)nc2)CCC(F)(F)CC1)c1ccccc1Cl` [2-chloro-N-((4,4-difluoro-1-(6-fluoropyridin-3-yl)cyclohexyl)methyl)benzamide], the pIC50 is 7.60.
For `Cc1ncc(C2(C(C)NC(=O)c3cccc(F)c3Cl)CCC(F)(F)CC2)cn1` (centres unmarked) [2-chloro-N-[1-[4,4-difluoro-1-(2-methylpyrimidin-5-yl)cyclohexyl]ethyl]-3-fluoro-benzamide], the pIC50 is 5.70.
For `Cc1ncc(C2(C(C)NC(=O)c3c(F)cccc3Cl)CCC(F)(F)CC2)cn1` (centres unmarked) [2-chloro-N-[1-[4,4-difluoro-1-(2-methylpyrimidin-5-yl)cyclohexyl]ethyl]-6-fluoro-benzamide] the value was 5.85; for `Cc1ncc(C2(C(C)NC(=O)c3ccccc3Cl)CCC(F)(F)CC2)cn1` (centres unmarked) [2-chloro-N-[1-[4,4-difluoro-1-(2-methylpyrimidin-5-yl)cyclohexyl]ethyl]benzamide], 5.80.
As to `Cc1ncc(C(CNC(=O)c2ccccc2Cl)c2ccncc2)cn1` (centres unmarked) [2-chloro-N-[2-(2-methylpyrimidin-5-yl)-2-(4-pyridyl)ethyl]benzamide], the pIC50 was 5.89.
On to `Cc1ncc(C(CNC(=O)c2cccc(F)c2Cl)C2CCC(F)(F)CC2)cn1` (centres unmarked) [2-chloro-N-[2-(4,4-difluorocyclohexyl)-2-(2-methylpyrimidin-5-yl)ethyl]-3-fluoro-benzamide], for which the pIC50 is 7.08.
Regarding `Cc1ncc(C(CNC(=O)c2c(F)cccc2Cl)C2CCC(F)(F)CC2)cn1` (centres unmarked) [2-chloro-N-[2-(4,4-difluorocyclohexyl)-2-(2-methylpyrimidin-5-yl)ethyl]-6-fluoro-benzamide], the pIC50 was 6.82.
As to `Cc1ncc(C(CNC(=O)c2ccccc2Cl)C2CCC(F)(F)CC2)cn1` (centres unmarked) [2-chloro-N-[2-(4,4-difluorocyclohexyl)-2-(2-methylpyrimidin-5-yl)ethyl]benzamide], the pIC50 is 7.05.
The figure for `O=C(NCC(c1ccc(Cl)cc1)C1CCOCC1)c1cccc(F)c1Cl` (centres unmarked) [2-chloro-N-[2-(4-chlorophenyl)-2-tetrahydropyran-4-yl-ethyl]-3-fluoro-benzamide] is 7.82.
Regarding `O=C(NCC(c1ccc(Cl)cc1)C1CCOCC1)c1c(F)cccc1Cl` (centres unmarked) [2-chloro-N-[2-(4-chlorophenyl)-2-tetrahydropyran-4-yl-ethyl]-6-fluoro-benzamide], the pIC50 is 7.52.
On to `O=C(NCC(c1ccc(Cl)cc1)C1CCOCC1)c1ccccc1Cl` (centres unmarked) [2-chloro-N-[2-(4-chlorophenyl)-2-tetrahydropyran-4-yl-ethyl]benzamide], for which the negative logarithm of the IC50 (pIC50) is 7.85.
For `O=C(NCC(c1ccncc1)c1cnc(C(F)(F)F)nc1)c1ccccc1Cl` (centres unmarked) [2-chloro-N-[2-(4-pyridyl)-2-[2-(trifluoromethyl)pyrimidin-5-yl]ethyl]benzamide] the value was 7.52; for `O=C(NCC(c1ccncc1)c1ccc(C(F)(F)F)nc1)c1ccccc1Cl` (centres unmarked) [2-chloro-N-[2-(4-pyridyl)-2-[6-(trifluoromethyl)-3-pyridyl]ethyl]benzamide], 7.96.
As for `O=C(NCC(CC1(C(F)(F)F)CC1)c1ccc(C2CC2)nc1)c1ccccc1Cl` (centres unmarked) [2-chloro-N-[2-(6-cyclopropyl-3-pyridyl)-3-[1-(trifluoromethyl)cyclopropyl]propyl]benzamide], the pIC50 was 7.03.
Take `O=C(NCC(CC1(C(F)(F)F)CC1)c1ccc(C(F)(F)F)nc1)c1ccccc1Cl` (centres unmarked) [2-chloro-N-[3-[1-(trifluoromethyl)cyclopropyl]-2-[6-(trifluo] [2-chloro-N-[3-[1-(trifluoromethyl)cyclopropyl]-2-[6-(trifluoromethyl)-3-pyridyl]propyl]benzamide]: the pIC50 was 8.68.
Consider `Cc1ncc(C(CNC(=O)c2ccccc2Cl)CC2CC2)cn1` (centres unmarked) [2-chloro-N-[3-cyclopropyl-2-(2-methylpyrimidin-5-yl)propyl]benzamide], for which the pIC50 is 5.92.
`O=C(NCC(CC1CC1)c1ccc(C(F)(F)F)nc1)c1ccccc1Cl` (centres unmarked) [2-chloro-N-[3-cyclopropyl-2-[6-(trifluoromethyl)-3-pyridyl]propyl]benzamide]: the pIC50 is 8.47.
For `CC(CNC(=O)c1cccc(F)c1Cl)(CC1CC1)c1cnc(C(F)(F)F)nc1` (centres unmarked) [2-chloro-N-[3-cyclopropyl-2-methyl-2-[2-(trifluoromethyl)pyr] [2-chloro-N-[3-cyclopropyl-2-methyl-2-[2-(trifluoromethyl)pyrimidin-5-yl]propyl]-3-fluoro-benzamide] the value was 7.80; for `CC(CNC(=O)c1ccccc1Cl)(CC1CC1)c1cnc(C(F)(F)F)nc1` (centres unmarked) [2-chloro-N-[3-cyclopropyl-2-methyl-2-[2-(trifluoromethyl)pyr] [2-chloro-N-[3-cyclopropyl-2-methyl-2-[2-(trifluoromethyl)pyrimidin-5-yl]propyl]benzamide], 7.68.
For the compound `Cc1ncc(C2(CNC(=O)c3ccccc3Cl)CCC(F)(F)CC2)cn1` [2-chloro-N-[[4,4-difluoro-1-(2-methylpyrimidin-5-yl)cyclohexyl]methyl]benzamide], the pIC50 was 6.92.
The figure for `O=C(NCC1(c2ccc(F)nc2)CCC(F)(F)CC1)c1cc(C(F)(F)F)ccc1Cl` [2-chloro-N-[[4,4-difluoro-1-(6-fluoro-3-pyridyl)cyclohexyl]methyl]-5-(trifluoromethyl)benzamide] is 8.92.

(Values after patent US9102591B2, “Benzamides” (H. Lundbeck A/S, priority 2012, dated 2015).)
